In patent US20160194683A1, “Gas Biosensors” (priority 2013, published 2016):
Read-outs that look alike come from different tables or passages of the source.

Tests used:
[1] = molecular target: XylR of Pseudomonas putida (Pseudomonas putida, UniProt P06519)
TodST of P. putida = molecular target: T1, TodST of P. putida (Pseudomonas putida, UniProt A5W4E3); settings: host P. putida str. F1; todXp-luxCDABE; cited from earlier work
T1 construct: host or cells: P. putida str; F1

[2] = system: TbuT of Ralstonia pickettii; settings: host E. coli; tbuAlp-luxAB; cited from earlier work
E. coli MG1655 = assay: Growth of E. coli MG1655 MHT integration strains in LB plus 200 mM KBr; format: cell-based; settings: headspace gas collected at 5 hrs
From the text: Three strains carrying an integrated Batis maritima MHT gene (BmMHT) were created by coupling the BmMHT gene to a constitutive promoter (P14) and three ribosomal binding sites (RBS) with different strengths (BCD2, BCD8, BCD14) in the integration vector pOSIP. Each was integrated into the phage 186 attachment site within the genome of E. coli MG1655 using the site specific recombinase from phage 186. Strains having the desired chromosomal insertions were verified by PCR.
Cells with a genomic copy of the MHT construct under control of the three different RBS were then tested for MHT activity by growing the cells in LB plus 200 mM KBr. Headspace gas was collected at 5 hrs, and CH3Br measured by GC-MS.
The CH3Br gas was readily detectable in the headspace, whereas the uninduced vector control cells produced no gas at all.

[3] = system: FruR of Erwinia herbicola; settings: cited from earlier work
AraC of E. coli = AraC of E. coli (Escherichia coli, UniProt P0A9E0); settings: cited from earlier work
Chain of AraC of E. coli (P0A9E0 whole entry): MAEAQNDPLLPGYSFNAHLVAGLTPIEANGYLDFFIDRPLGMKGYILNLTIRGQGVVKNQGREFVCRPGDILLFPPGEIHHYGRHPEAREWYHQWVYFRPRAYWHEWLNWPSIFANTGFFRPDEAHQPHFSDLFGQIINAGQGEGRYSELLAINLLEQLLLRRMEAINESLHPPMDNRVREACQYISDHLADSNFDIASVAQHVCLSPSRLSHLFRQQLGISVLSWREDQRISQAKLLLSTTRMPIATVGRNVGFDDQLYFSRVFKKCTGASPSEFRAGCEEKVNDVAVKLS

[4] = system: PhnR of Burkholderia sartisoli; settings: host B. sartisoli; phnSp-luxAB; cited from earlier work
NahR of P. putida = molecular target: T2, NahR of P. putida (Pseudomonas putida, UniProt P10183); settings: host P. putida; nahGp-luxAB; cited from earlier work
T2 construct: host or cells: P. putida
T2 sequence (P10183 1-300): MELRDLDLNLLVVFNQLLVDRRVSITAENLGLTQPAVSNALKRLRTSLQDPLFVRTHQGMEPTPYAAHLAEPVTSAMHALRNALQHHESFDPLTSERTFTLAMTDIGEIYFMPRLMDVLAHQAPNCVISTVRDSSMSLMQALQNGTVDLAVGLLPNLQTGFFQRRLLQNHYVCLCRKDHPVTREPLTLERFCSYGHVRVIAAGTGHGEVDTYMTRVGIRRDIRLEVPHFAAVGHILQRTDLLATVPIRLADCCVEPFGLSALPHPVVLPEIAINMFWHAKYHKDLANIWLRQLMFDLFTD

DmpR of P. putida = settings: host P. putida; Po-luxAB; cited from earlier work
[5] = system: SOS response proteins of B. subtilis; settings: host B. subtilis; yorBp-lucFF; cited from earlier work
MphR of E. coli = settings: host E. coli; mphAp-lacZ; cited from earlier work
[6] = system: SpoIIID and σ^E of B. subtilis; settings: host B. subtilis; yheI-lucFF; cited from earlier work
DnaK and σ32 of E. coli = settings: host E. coli; dnaKp-luxCDABE; increase in intracellular misfolded proteins; cited from earlier work
[7] = system: Crp-cAMP transcriptional dual regulator of E. coli; settings: host E. coli; grpEP-luxCDABE; increase in intracellular misfolded proteins; cited from earlier work
ArsR of E. coli = settings: host E. coli; arsRp-luxAB; cited from earlier work
RecA-LexA of E. coli [8] = settings: host E. coli; reAp-luxCDABE; cited from earlier work
RecA-LexA of E. coli [9] = settings: host E. coli; sfiA-lacZ; cited from earlier work
[10] = host Escherichia coli; Pu-lucFF; cited from earlier work

T1 sequence (A5W4E3 whole entry): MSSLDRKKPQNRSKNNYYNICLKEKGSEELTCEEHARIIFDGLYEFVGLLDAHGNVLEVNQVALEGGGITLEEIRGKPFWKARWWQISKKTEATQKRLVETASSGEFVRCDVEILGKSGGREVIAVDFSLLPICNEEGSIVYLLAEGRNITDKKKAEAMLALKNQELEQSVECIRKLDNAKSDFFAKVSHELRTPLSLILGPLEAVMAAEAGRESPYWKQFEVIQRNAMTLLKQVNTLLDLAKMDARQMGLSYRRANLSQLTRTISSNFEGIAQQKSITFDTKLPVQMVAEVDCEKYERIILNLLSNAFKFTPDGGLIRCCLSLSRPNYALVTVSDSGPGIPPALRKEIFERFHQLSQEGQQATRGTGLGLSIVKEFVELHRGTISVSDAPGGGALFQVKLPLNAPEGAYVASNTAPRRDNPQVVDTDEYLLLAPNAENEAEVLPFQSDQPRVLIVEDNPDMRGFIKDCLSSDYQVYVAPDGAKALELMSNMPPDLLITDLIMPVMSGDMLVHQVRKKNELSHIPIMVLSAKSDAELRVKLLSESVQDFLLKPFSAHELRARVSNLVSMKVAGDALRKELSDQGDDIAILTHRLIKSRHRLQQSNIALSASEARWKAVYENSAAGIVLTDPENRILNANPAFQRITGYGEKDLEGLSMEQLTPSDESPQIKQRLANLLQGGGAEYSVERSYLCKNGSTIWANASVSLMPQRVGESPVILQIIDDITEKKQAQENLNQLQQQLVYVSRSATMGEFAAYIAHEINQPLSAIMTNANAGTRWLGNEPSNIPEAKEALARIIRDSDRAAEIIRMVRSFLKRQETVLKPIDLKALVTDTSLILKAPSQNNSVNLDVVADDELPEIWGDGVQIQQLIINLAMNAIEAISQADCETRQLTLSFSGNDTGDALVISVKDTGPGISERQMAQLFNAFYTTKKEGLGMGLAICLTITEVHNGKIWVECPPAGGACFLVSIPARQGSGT
Chain of XylR of Pseudomonas putida (P06519 whole entry): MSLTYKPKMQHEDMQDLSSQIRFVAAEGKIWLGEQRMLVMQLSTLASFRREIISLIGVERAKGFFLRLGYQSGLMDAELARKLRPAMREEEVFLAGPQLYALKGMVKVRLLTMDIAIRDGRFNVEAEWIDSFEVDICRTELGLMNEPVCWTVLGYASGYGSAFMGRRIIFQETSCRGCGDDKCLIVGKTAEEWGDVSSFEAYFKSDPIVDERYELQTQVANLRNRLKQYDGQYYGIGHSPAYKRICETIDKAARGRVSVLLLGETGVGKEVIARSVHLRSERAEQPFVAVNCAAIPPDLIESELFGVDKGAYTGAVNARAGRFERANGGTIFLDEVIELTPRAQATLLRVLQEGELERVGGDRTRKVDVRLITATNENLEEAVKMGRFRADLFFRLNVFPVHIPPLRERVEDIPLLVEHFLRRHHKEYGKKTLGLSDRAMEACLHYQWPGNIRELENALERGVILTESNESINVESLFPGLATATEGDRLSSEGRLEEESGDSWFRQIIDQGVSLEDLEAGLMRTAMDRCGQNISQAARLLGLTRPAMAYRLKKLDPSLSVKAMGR

In the case of Cc1cccc(CO)c1 [3-methylbenzylalcohol], the EC50 ([1]; E. coli, firefly luciferase under XylR and Pu; means±standard deviations; read-out: K1/2 of luminescence concentration dependence; cited from earlier work) is given as 2.69 mM.
For c1ccccc1 [Benzene], the Detection sensitivity (TodST of P. putida) is given as 0.3 µM, the Detection sensitivity [2] is given as 0.24 µM and the Detection sensitivity [1, 10] is given as 40 µM.
For CBr [CH3Br], the “Toxicity to cells (cell growth)” value (E. coli MG1655) was “Neither the bromine ions, nor the CH3Br gas were toxic”.
In the case of O=C(CO)[C@@H](O)[C@H](O)[C@H](O)CO [Fructose], the Detection sensitivity [3] is listed as ~2 µM.
For O=C[C@H](O)[C@@H](O)[C@@H](O)CO [L-Arabinose], the Detection sensitivity (AraC of E. coli) is listed as 0.5 µM.
In the case of c1ccc2ccccc2c1 [Naphthalene], the Detection sensitivity [4] is given as 0.17 µM and the Detection sensitivity (NahR of P. putida) is given as 10 nM.
For Oc1ccccc1 [Phenol], the Detection sensitivity (DmpR of P. putida) is listed as 3 µM and the Detection sensitivity (TodST of P. putida) is listed as 0.3 µM.
For Br [bromine ions], the “Toxicity to cells (cell growth)” value (E. coli MG1655) was “Neither the bromine ions, nor the CH3Br gas were toxic”.
For O=C(O)c1cn(C2CC2)c2cc(N3CCNCC3)c(F)cc2c1=O [ciprofloxacin], the Detection sensitivity [5] is listed as 60 nM.
In the case of CC[C@H]1OC(=O)[C@H](C)[C@@H](O[C@H]2C[C@@](C)(OC)[C@@H](O)[C@H](C)O2)[C@H](C)[C@@H](O[C@@H]2O[C@H](C)C[C@H](N(C)C)[C@H]2O)[C@](C)(O)C[C@@H](C)C(=O)[C@H](C)[C@@H](O)[C@]1(C)O [erythromycin], the Detection sensitivity (MphR of E. coli) is given as ~10 µM.
For CC(=O)NC[C@H]1CN(c2ccc(N3CCOCC3)c(F)c2)C(=O)O1 [linezolid], the Detection sensitivity [6] is listed as 0.1 µM.
In the case of Cc1cccc(C)c1 [m-xylene], the Detection sensitivity (TodST of P. putida) is listed as 0.3 µM and the EC50 ([1]; read-out: K1/2 of luminescence concentration dependence; E. coli, firefly luciferase under XylR and Pu; means±standard deviations; cited from earlier work) is listed as 0.039 ± 0.0038 mM.
In the case of CO [methanol], the Detection sensitivity (DnaK and σ32 of E. coli) is given as 0.25M methanol,.
For Cc1ccc(C)cc1 [p-xylene], the Detection sensitivity (TodST of P. putida) is listed as 0.3 µM.
For Oc1c(Cl)c(Cl)c(Cl)c(Cl)c1Cl [pentachlorophenol], the Detection sensitivity [7] is listed as 0.14 nM.
In the case of c1ccc2c(c1)ccc1ccccc12 [phenanthrene], the Detection sensitivity [4] is listed as 0.17 µM.
For O=C(O)c1ccccc1O [salicylate], the Detection sensitivity (NahR of P. putida) is given as 10 nM.
For OC[C@H]1O[C@@](CO)(O[C@H]2O[C@H](CO)[C@@H](O)[C@H](O)[C@H]2O)[C@@H](O)[C@@H]1O [sucrose], the Detection sensitivity [3] is listed as ~2 µM.
For Cc1ccccc1 [toluene], the Detection sensitivity (TodST of P. putida) is given as 0.3 µM, the Detection sensitivity [2] is given as 0.24 µM and the Detection sensitivity [1, 10] is given as 40 µM.
In the case of ClC=C(Cl)Cl [trichloroethene], the Detection sensitivity (TodST of P. putida) is listed as 0.3 µM.
In the case of Arsenite, the Detection sensitivity (ArsR of E. coli) is given as 5 nM.
For Xylene, the Detection sensitivity [2] is given as 0.24 µM and the Detection sensitivity [1, 10] is given as 40 µM.
For antimonite, the Detection sensitivity (ArsR of E. coli) is listed as 5 nM.
In the case of mitomycin C, the Detection sensitivity (RecA-LexA of E. coli [8]) is given as 0.2 nM mitomycin C and the Detection sensitivity (RecA-LexA of E. coli [9]) is given as 4 nM mitomycin C.
